Source: PMC6099493, “Discovery of Matrinic Thiadiazole Derivatives as a Novel Family of Anti-Liver Fibrosis Agents via Repression of the TGFβ/Smad Pathway” (Molecules : A Journal of Synthetic Chemistry and Natural …, 2018)
Where a name gives a salt, the structure may show the parent alone.

How the values were obtained:
[1] = test system: COL1A1 promotor; assay: COL1A1 promotor single luciferase reporter gene model in LX-2 (LX2-COL) cells; type: cell-based, human; conditions: LX-2 cells treated simultaneously with TGFβ1 and compound; for inhibition at 40 µM: Homo sapiens, read-out: Inhibition Percentage (inhibition rate of COL1A1 promotor's activity in LX2 cells)
[2] = MTT cytotoxicity / cell survival assay; type: cell-based; conditions: human, HepG2 cells, read-out: CC50 (cytotoxic concentration required to inhibit HepG2 cell growth by 50%)
Experimental: A single luciferase reporter gene detection model was applied to screen the inhibitory effects towards COL1A1 promotor of all target compounds in human hepatic stellate LX-2 cells at the concentration of 40 μM, taking EGCG and compound 1 as the positive controls. The LX2-COL monoclone cell line was treated simultaneously with TGFβ1 and a target compound [13]. The cytotoxicity was determined using MTT assay in HepG2 cells.
The cell survival was evaluated by MTT assay. HepG2 cells were seeded at density of 6 × 10^3 cells/well in 96-well plate. Cells were treated with various concentrations of matrinic derivate until the cells at 50% confluence. After 24 h of incubation, 20 µL of the MTT (5 mg/mL) solution was added into each plate and incubated for 4 h at 37 °C, 5% CO2. Subsequently, the culture supernatant was replaced with 150 µL DMSO to dissolve the formazan crystal. The absorbance at 570 nm was measured using a microplate reader (ELx800, BioTek Instruments, Winooski, VT, USA).

Structure (SMILES)	melting point	inhibition at 40 µM [1]	Inhibition Percentage (inhibition rate of COL1A1 promotor's activity in LX2 cells) ([1]; 40 μM)	CC50 at 24 h [2]
CC(=O)Nc1nnc(CCCC2C3CCCN4CCCC(CN2Cc2ccccc2)C34)s1 (stereo not drawn) [Compound 7c, 12-N-Benzyl-3′-(5-acetylamino-1,3,4-thiadiazol-2-yl)-matrinic propane]	188 to 189 °C	12.9%	–	–
O=C(O)CCCC1C2CCCN3CCCC(CN1Cc1ccccc1)C23 (stereo not drawn) [Compound 5b, 12-N-Benzyl matrinic acid]	95 to 96 °C	-33.6%	–	–
O=C(O[C@@H]1Cc2c(O)cc(O)cc2O[C@@H]1c1cc(O)c(O)c(O)c1)c1cc(O)c(O)c(O)c1 [EGCG, epigallocatechin gallate, reference compound]	–	–	27.5% ± 7.9%	–
Nc1nnc(CCCC2C3CCCN4CCCC(CN2Cc2ccc(Br)cc2)C34)s1 (stereo not drawn) [Compound 6o, 12-N-p-Bromobenzyl-3′-(5-amino-1,3,4-thiadiazol-2-yl)-matrinic propane]	193 to 194 °C	7.8%	–	–
CC(=O)Nc1nnc(CCCC2C3CCCN4CCCC(CN2S(=O)(=O)c2ccc(C)cc2)C34)s1 (stereo not drawn) [Compound 7a, 12-N-p-Methylblenzenesulfonyl-3′-(5-acetylamino-1,3,4-thiadiazol-2-yl)-matrinic propane]	273 °C (dec.)	33.9%	–	–
Cc1ccc(CN2CC3CCCN4CCCC(C2CCCC(=O)O)C34)cc1 (stereo not drawn) [Compound 5c, 12-N-p-Methylbenzyl matrinic acid]	106 to 108 °C	-116%	–	–
CNc1nnc(CCCC2C3CCCN4CCCC(CN2S(=O)(=O)c2ccc(C(F)(F)F)cc2)C34)s1 (stereo not drawn) [Compound 6g, 12-N-p-Trifluoromethlybenzenesulfonyl-3′-(N-methyl-5-amino-1,3,4-thiadiazol-2-yl)-matrinic propane]	181 °C (dec.)	6.1%	–	–
CC(=O)Nc1nnc(CCCC2C3CCCN4CCCC(CN2S(=O)(=O)c2ccc(C(F)(F)F)cc2)C34)s1 (stereo not drawn) [Compound 7b, 12-N-p-Trifluoromethlybenzenesulfonyl-3′-(5-acetylamino-1,3,4-thiadiazol-2-yl)-matrinic propane]	197 °C (dec.)	-6%	–	–
O=C(O)CCCC1C2CCCN3CCCC(CN1S(=O)(=O)c1ccc(C(F)(F)F)cc1)C23 (stereo not drawn) [Compound 5a]	–	-3.7%	–	–
CC(=O)Nc1nnc(CCCC2C3CCCN4CCCC(CN2Cc2ccc(C)cc2)C34)s1 (stereo not drawn) [Compound 7d, 12-N-p-Methylbenzyl-3′-(5-acetylamino-1,3,4-thiadiazol-2-yl)-matrinic propane]	226 °C (dec.)	27%	–	–
CN(C)c1nnc(CCCC2C3CCCN4CCCC(CN2Cc2ccccc2)C34)s1 (stereo not drawn) [Compound 6k, 12-N-Benzyl-3′-(N,N-dimethyl-5-amino-1,3,4-thiadiazol-2-yl)-matrinic propane hydrochloride]	–	15.2%	–	–
Nc1nnc(CCCC2C3CCCN4CCCC(CN2S(=O)(=O)c2ccc(C(F)(F)F)cc2)C34)s1 (stereo not drawn) [Compound 6f, 12-N-p-Ttrifluoromethlybenzenesulfonyl-3′-(5-amino-1,3,4-thiadiazol-2-yl)-matrinic propane]	206 °C (dec.)	-19%	–	–

The next lines start with results.

melting point	Structure (SMILES)	inhibition at 40 µM [1]	Inhibition Percentage (inhibition rate of COL1A1 promotor's activity in LX2 cells) ([1]; 40 μM)	CC50 at 24 h [2]
134 to 135 °C	O=C(O)CCCC1C2CCCN3CCCC(CN1Cc1ccc(Br)cc1)C23 (stereo not drawn) [Compound 5d, 12-N-p-Bromobenzyl matrinic acid]	6.4%	–	–
169 to 170 °C	CNc1nnc(CCCC2C3CCCN4CCCC(CN2S(=O)(=O)c2ccc(C)cc2)C34)s1 (stereo not drawn) [Compound 6b, 12-N-p-Mmethlybenzenesulfonyl-3′-(N-methyl-5-amino-1,3,4-thiadiazol-2-yl)-matrinic propane]	12.8%	–	–
237 °C (dec.)	Cc1ccc(S(=O)(=O)N2CC3CCCN4CCCC(C34)C2CCCc2nnc(N)s2)cc1 (stereo not drawn) [Compound 6a, 12-N-p-Methlybenzenesulfonyl-3′-(5-amino-1,3,4-thiadiazol-2-yl)-matrinic propane]	21.2%	–	> 320 µM
189 to 190 °C	CN(C)c1nnc(CCCC2C3CCCN4CCCC(CN2Cc2ccccc2)C34)s1 (stereo not drawn) (as salt: hydrochloride) [Compound 6k, 12-N-Benzyl-3′-(N,N-dimethyl-5-amino-1,3,4-thiadiazol-2-yl)-matrinic propane hydrochloride]	–	–	–
137 to 138 °C	CNc1nnc(CCCC2C3CCCN4CCCC(CN2Cc2ccccc2)C34)s1 (stereo not drawn) [Compound 6j, 12-N-Benzyl-3′-(N-methyl-5-amino-1,3,4-thiadiazol-2-yl)-matrinic propane]	29.5%	–	–
163 to 164 °C	CNc1nnc(CCCC2C3CCCN4CCCC(CN2Cc2ccc(C)cc2)C34)s1 (stereo not drawn) [Compound 6m, 12-N-p-Methylbenzyl-3′-(N-methyl-5-amino-1,3,4-thiadiazol-2-yl)-matrinic propane]	-29.6%	–	–
193 to 194 °C	Cc1ccc(S(=O)(=O)N2CC3CCCN4CCCC(C34)C2CCCc2nnc(NC(C)C)s2)cc1 (stereo not drawn) [Compound 6c, 12-N-p-Methylbenzenesulfonyl-3′-(N-iso-propyl-5-amino-1,3,4-thiadiazol-2-yl)-matrinic propane]	-84.2%	–	–
142 to 143 °C	Cc1ccc(S(=O)(=O)N2CC3CCCN4CCCC(C34)C2CCCc2nnc(N(C)C)s2)cc1 (stereo not drawn) [Compound 6d, 12-N-p-Methylbenzenesulfonyl-3′-(N,N-dimethyl-5-amino-1,3,4-thiadiazol-2-yl)-matrinic propane]	-36.7%	–	–
147 to 148 °C	CN(C)c1nnc(CCCC2C3CCCN4CCCC(CN2S(=O)(=O)c2ccc(C(F)(F)F)cc2)C34)s1 (stereo not drawn) [Compound 6h, 12-N-p-Trifluoromethlybenzenesulfonyl-3′-(N,N-dimethyl-5-amino-1,3,4-thiadiazol-2-yl)-matrinic propane]	-35.2%	–	–
